Two compounds from publication PMC10518255, “A first-in-class pan-lysyl oxidase inhibitor impairs stromal remodeling and enhances gemcitabine response and survival in pancreatic cancer” (Nature Cancer, 2023) can be followed below.

One experiment concerns APMA human PDX tumors. In words: APMA human PDX model, tumor volumes at end point (Extended Data Fig. 5g). It counts as in vivo, mouse. Particulars: Extended Data 5G; second human PDX model after 3 cycles of treatment; individual animals. On the procedure:
(§1) Subcutaneous PDX studies were performed by implanting early passage PDX pieces (~4 mm^3) or TKCC10 CCs (1.5 × 10^6 cells per mouse in 100 μl PBS/Matrigel 1:1) into female (PDX) or male (TKCC10) 8-week-old immunocompromised nude Balb/c-Fox1nuAusb mice subcutaneously on the left flank. For the duration of the study, mice were kept in conventional caging with environmental enrichment, access to standard chow, water ad libitum and 12-h light–dark cycle at ambient temperature and humidity. Treatment began when tumors reached 150 mm^3, where each mouse was randomized into a treatment group and administered gemcitabine HCl (100 mg kg^−1 in saline) (Jomar Life Research) or vehicle control (0.9% saline) by i.p. injection twice weekly on day 2 and 4 of the treatment cycle until an ethical end point was reached. These included maximal tumor mass ≥10% of body weight, weight loss ≥20% from maximum body weight or tumor interfering with mobility and affecting access to food and water. Animals with non-tumor-related complications that led to a premature end point were censored. PXS-5505 (20 mg kg^−1 in saline) or vehicle (0.9% saline) was administered daily by i.p. injection. Tumor size was monitored every second day by calipers. Tumor volume was calculated using the formula (length × width^2)/2. At day 39, mice were killed via CO2 and cervical dislocation and tumors were collected and processed. […]

The test system of the next experiment is TKCC10 human PDX tumors. Put plainly: TKCC10 human model, picrosirius red birefringence after three rounds of therapy (Extended Data Fig. 5d). It counts as in vivo, mouse. As to conditions: for Quantification of red birefringent (mature) collagen fibres: Extended Data 5D, human PDXs at endpoint after 3 cycles of treatment, individual replicates. On the procedure: as §1, with “PXS-5505 (20 mg kg^−1 in saline) or vehicle (0.9% saline) was administered daily by i.p. injection.” left out, “width^2)/2.” for “width^2)/2. At day 39, mice were killed via CO2 and cervical dislocation and tumors were collected and processed.”
Extended Data Fig. 5 PXS-5505 in combination with gemcitabine in vivo. a. […] Signal is defined as the enzyme activity in the aorta, while noise is measured in the presence of a high concentration (300 µM) BAPN to abolish any lysyl oxidase family activity. […] FITC-dextran (molecular weight: 10 kDa) signal quantification from KPC tumor end point from each treatment group (vehicle n = 3 biologically independent animals, PXS-5505 n = 5 biologically independent animals, Gem n = 5 biologically independent animals, PXS-5505 + Gem n = 5 biologically independent animals). […] P-values determined by Welchs t-test. […] Quantification of red birefringent (mature) collagen fibers from human PDXs at end point after 3 cycles of treatment, treated as indicated. […] P values determined by Welchs t-test. g. […] Quantification of green birefringent (nascent) collagen fibers from human PDXs at end point, treated as indicated. […]

Where “and” joins values, the source holds several entries; their conditions need not be identical. Equal entries are not always repeated.

On to `Nc1ccn([C@@H]2O[C@H](CO)[C@@H](O)C2(F)F)c(=O)n1` [Gem, gemcitabine], for which the “Tumour volumes at endpoint” value in the experiment on APMA human PDX tumors is 145.448 mm3 and 9.626 mm3 and 12.4718 mm3 and 45.315 mm3 and 3.952 mm3 and 50.8335 mm3 and 16.8359 mm3 and 29.7673 mm3 and 51.7185 mm3 and 16.7442 mm3. Further, the “Quantification of red birefringent (mature) collagen fibres” value in the experiment with TKCC10 human PDX tumors is 806 and 284 and 128 and 654 and 1145 and 167 and 291 and 56 and 399 and 263 and 1177 and 403 and 843 and 2660 and 1208 and 745 and 4462 and 5568 and 5319 and 1528 and 2340 and 4185 and 3205 and 2211 and 5904. Besides, in the experiment on TKCC10 human PDX tumors (TKCC10 model, three rounds of therapy), the “tumor fibrillar collagen content (picrosirius red birefringence)” value is “increases fibrillar collagen I content”.
As to `Cl.Cl.NC/C=C(\F)CS(=O)(=O)c1cccc2cccnc12.O` [PXS-5505, (Z)-3-fluoro-4-(quinolin-8-ylsulfonyl)but-2-en-1-amine dihydrochloride monohydrate], the “Tumour volumes at endpoint” value with APMA human PDX tumors was 111.838 mm3 and 144.188 mm3 and 186.048 mm3 and 277.687 mm3 and 285.67 mm3 and 63.9218 mm3 and 265.041 mm3 and 180.58 mm3 and 65.1463 mm3. Moreover, the “Quantification of red birefringent (mature) collagen fibres” value in the experiment with TKCC10 human PDX tumors is 965 and 112 and 188 and 2 and 295 and 380 and 3894 and 62 and 792 and 254 and 25 and 1015 and 164 and 72 and 282 and 10 and 83 (2×) and 9 and 15 and 1307 and 917 and 737 and 1467 and 503.
